In US4996358A, “Hydroxylamine bearing amino acid derivatives as collagenase inhibitors” (Hoffmann-La Roche Inc., priority 1986, dated 1991) one finds IC50 data, which are given here for six compounds.

Usually IC50 stands for the concentration that inhibits the measured activity by half.

In the experiment the target is T1, human synovial collagenase (Homo sapiens, UniProt P03956).
T1 construct: endogenous in cells; host or cells: human synovial fibroblast culture; procollagenase partially purified from the culture medium
T1 sequence (P03956 100-469): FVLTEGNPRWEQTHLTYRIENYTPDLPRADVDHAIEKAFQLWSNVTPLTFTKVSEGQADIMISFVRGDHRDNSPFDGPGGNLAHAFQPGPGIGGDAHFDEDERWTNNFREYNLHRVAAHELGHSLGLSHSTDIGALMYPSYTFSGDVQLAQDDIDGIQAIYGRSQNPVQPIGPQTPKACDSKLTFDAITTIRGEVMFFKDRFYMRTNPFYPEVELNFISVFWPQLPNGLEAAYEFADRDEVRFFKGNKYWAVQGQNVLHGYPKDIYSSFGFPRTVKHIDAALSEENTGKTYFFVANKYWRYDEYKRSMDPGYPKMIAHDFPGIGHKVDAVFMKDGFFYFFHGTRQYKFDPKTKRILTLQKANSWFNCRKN
The experiment in a line: In vitro inhibition of collagenase from human synovial fibroblast culture (synthetic peptide substrate cleavage). As to conditions: trypsin-activated procollagenase; 0.5 mmol N-acetyl-L-prolyl-L-leucylglycyl-L-leucyl-L-leucylglycyl ester substrate; borate buffer pH 7.5, CaCl2; 37° C., 1 hour; read-out: Inhibitory activity against human synovial collagenase IC50. Format: biochemical. As for the experimental part: Procollagenase was partially purified from the cell culture medium by negative adsorption on DEAE Sephadex A-50 at pH 8.1 and activated by treatment with tryspin. The inhibitory activity of the present hydroxylamine derivatives was determined using a synthetic substrate, N-acetyl-L-prolyl-L-leucylglycyl-L-leucyl-L-leucylglycyl […], for this collagenase. The enzyme was added to a solution of 0.5 mmol of substrate in 50 mmol of borate buffer (pH 7.5) containing 1 mmol of calcium chloride and a known concentration of peptide derivative. The resulting solution was incubated at 37° C. for 1 hour. Enzyme digestion of the substrate was terminated by the addition of an equal volume of 2% (weight/volume) sodium hydrogen carbonate solution in 50% aqueous methanol containing 0.1% (weight/volume) of picrylsulfonic acid. The solution obtained was incubated at 37° C. for an additional 1 hour in order to allow reaction between the L-leucyl-L-leucyl-glycyl ethyl ester generated by the cleavage of the substrate and the picrylsulfonic acid to give trinitrophenyl-L-leucyl-L-leucylglycyl ethyl ester. The reaction was terminated and stabilized by acidification with IN hydrochloric acid. The concentration of trinitrophenyl-L-leucyl-L-leucylglycyl ethyl ester was determined by spectrophotometry at 335 nm. The IC50 is that concentration of hydroxylamine derivative of formula I of the invention in the enzyme digestion which reduces substrate cleavage to 50% of that achieved by the enzyme alone.
In the case of `CCOC(=O)CNC(=O)[C@H](CC(C)C)NC(=O)[C@H](CC(C)C)[C@H](CCCCN1C(=O)c2ccccc2C1=O)C(=O)NO` [F, [4-(N-hydroxyamino) 3(S)-phthaloylaminobutyl-2(R)-isobutylsuccinyl]-L-leucylglycine ethyl ester], the IC50 was 12 nM.
For the compound `CCOC(=O)[C@H](C)NC(=O)[C@H](CC(C)C)NC(=O)[C@@H](CC(=O)NO)CC(C)C` [B, [4-(N-hydroxyamino) 2(R)-isobutylsuccinyl]-L-leucyl-L-alanine ethyl ester], the IC50 was 8.5 nM.
`CC(C)C[C@H](CC(=O)NO)C(=O)NC1CCCCCCCCCCNC1=O` (stereo partly drawn) [E, [4-(N-hydroxyamino) 2(R)-isobutylsuccinyl]-3(RS)-aminolaurolactam]: the IC50 came out at 38 nM.
Then `CCOC(=O)[C@H](C)NC(=O)[C@H](CCCCNC(=O)CN)NC(=O)[C@@H](CC(=O)NO)CC(C)C` [D, N^α -[4-(N-hydroxyamino) 2(R)-isobutylsuccinyl]-N^ε -glycyl-L-lysyl-L-alanine ethyl ester], with 30 nM; and `CCOC(=O)CNC(=O)[C@H](CC(C)C)NC(=O)[C@@H](CC(=O)NO)CC(C)C` [A, [4-(N-Hydroxyamino) 2(R)-isobutylsuccinyl]-L-leucylglycine ethyl ester], with 25 nM.
Then `CCOC(=O)CNC(=O)[C@H](CC(C)C)NC(=O)C(CC(C)C)CN(O)C=O` (mixture of isomers) [C, [N-formyl-N-hydroxy 2(RS)-isobutyl-3-aminopropionyl]-L-leucylglycine ethyl ester], with 300 nM.
